The source made the active and inactive calls. The rule behind the calls is not given here.
Assays:
Rattus norvegicus [1] = test: Induction of bone calcium mobilization in vitamin D-deficient Sprague-Dawley rat assessed as serum calcium level at 780 pmol, ip administered as 4 consecutive daily doses measured after 24 hrs post last dose by spectrometry relative to 1alpha,25-(OH)2D3; assay type: functional, organism-based
Rattus norvegicus [2] = test: Induction of bone calcium mobilization in vitamin D-deficient Sprague-Dawley rat assessed as serum calcium level at 87 pmol, ip administered as 4 consecutive daily doses measured after 24 hrs post last dose by spectrometry relative to 1alpha,25-(OH)2D3; assay type: functional, organism-based
[3] = target: T1, Vitamin D3 receptor (Rattus norvegicus) (UniProt P13053); test: Potency index, ratio of ED50 for 1-alpha,25-(OH)2D3 to ED50 for test compound for agonist activity at rat recombinant full length VDR expressed in rat ROS 17/2.8 cells transfected with 24-hydroxylase gene promoter assessed as transcriptional activation after 16 hrs by luciferase reporter gene assay; assay type: cell-based
T1 sequence (whole entry): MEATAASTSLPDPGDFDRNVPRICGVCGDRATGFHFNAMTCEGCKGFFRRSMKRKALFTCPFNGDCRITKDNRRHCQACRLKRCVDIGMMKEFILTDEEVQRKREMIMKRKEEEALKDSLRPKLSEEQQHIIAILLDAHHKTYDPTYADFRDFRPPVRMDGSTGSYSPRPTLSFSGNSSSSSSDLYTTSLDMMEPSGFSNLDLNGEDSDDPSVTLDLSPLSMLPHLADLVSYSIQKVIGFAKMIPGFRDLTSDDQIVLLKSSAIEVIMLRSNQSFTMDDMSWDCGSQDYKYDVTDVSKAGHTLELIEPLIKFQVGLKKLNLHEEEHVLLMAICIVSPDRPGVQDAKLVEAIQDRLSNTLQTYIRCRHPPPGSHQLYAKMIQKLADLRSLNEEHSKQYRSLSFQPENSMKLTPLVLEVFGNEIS

[4] = target: T1, Vitamin D3 receptor (Rattus norvegicus); test: Potency index, ratio of Ki for 1-alpha,25-(OH)2D3 to Ki for test compound for displacement of [3H]1-alpha,25-(OH)2D3 from rat recombinant full length VDR
[5] = target: T2, Vitamin D3 receptor (Homo sapiens) (UniProt P11473); test: Potency index, ratio of ED50 for 1-alpha,25-(OH)2D3 to ED50 for test compound for agonist activity at VDR in human HL60 cells assessed as induction of cell differentiation of promyelocytes to monocytes after 4 days by NBT reduction assay; assay type: cell-based; details: HL-60
T2 sequence (whole entry): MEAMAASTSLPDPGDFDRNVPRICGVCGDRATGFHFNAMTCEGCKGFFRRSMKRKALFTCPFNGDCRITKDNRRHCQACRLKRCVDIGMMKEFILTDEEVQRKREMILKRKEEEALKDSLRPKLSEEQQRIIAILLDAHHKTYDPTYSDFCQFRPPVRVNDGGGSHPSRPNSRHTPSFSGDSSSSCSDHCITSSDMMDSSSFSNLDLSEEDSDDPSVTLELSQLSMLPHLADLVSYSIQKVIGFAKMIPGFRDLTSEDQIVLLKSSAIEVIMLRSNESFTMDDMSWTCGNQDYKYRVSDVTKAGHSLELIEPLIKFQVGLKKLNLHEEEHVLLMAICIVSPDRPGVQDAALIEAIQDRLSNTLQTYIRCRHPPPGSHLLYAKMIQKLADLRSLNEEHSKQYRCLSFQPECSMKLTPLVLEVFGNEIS

Rattus norvegicus [6] = test: Induction of intestinal calcium transport in vitamin D-deficient Sprague-Dawley rat assessed as ratio of serosal to mucosal calcium level at 87 pmol, ip administered as 4 consecutive daily doses measured after 24 hrs post last dose by gut sac assay relative to 1alpha,25-(OH)2D3; assay type: functional, organism-based
Rattus norvegicus [7] = test: Induction of intestinal calcium transport in vitamin D-deficient Sprague-Dawley rat assessed as ratio of serosal to mucosal calcium level at 780 pmol, ip administered as 4 consecutive daily doses measured after 24 hrs post last dose by gut sac assay relative to 1alpha,25-(OH)2D3; assay type: functional, organism-based

Row | SMILES | Activity (Rattus norvegicus [1]) | Activity (Rattus norvegicus [2]) | Ratio ED50 [3] | Ratio Ki [4] | Ratio ED50 [5] | Activity (Rattus norvegicus [6]) | Activity (Rattus norvegicus [7])
1 | C=C1[C@H](O)CC(=C/C=C2\CCC[C@]3(C)[C@@H]([C@@H](C)C(=C)CCC(O)(CC)CC)CC[C@@H]23)C[C@H]1O | Active | Active | 6.7 | 1 | 10 | Active | Active
2 | C=C1[C@H](O)CC(=C/C=C2\CCC[C@]3(C)[C@@H]([C@@H](C)C(=C)CCC4(O)CCCC4)CC[C@@H]23)C[C@H]1O | Active | Active | 20 | 1 | 29 | Active | Active
3 | C=C1[C@H](O)CC(=C/C=C2\CCC[C@]3(C)[C@@H]([C@@H](C)C(=C)CCC(C)(C)O)CC[C@@H]23)C[C@H]1O | Active | Active | 2.5 | 0.5 | 4 | Active | Active
4 | C=C1[C@H](O)CC(=C/C=C2\CCC[C@]3(C)[C@@H]([C@@H](C)C(=C)CCCC(C)(C)O)CC[C@@H]23)C[C@H]1O | Active | Active | 20 | 1 | 50 | Active | Active
5 | C=C1[C@H](O)CC(=C/C=C2\CCC[C@]3(C)[C@@H]([C@@H](C)C(=C)CCCC(O)(CC)CC)CC[C@@H]23)C[C@H]1O | Active | Active | 6.7 | 0.5 | 50 | Active | Active
6 | C=C1[C@H](O)CC(=C/C=C2\CCC[C@]3(C)[C@@H]([C@@H](C)CCCC(C)(C)O)CC[C@@H]23)C[C@H]1O | – | – | 29 | 1 | 25 | – | –
7 | C=C1[C@H](O)CC(=C/C=C2\CCC[C@]3(C)[C@@H]([C@@H](C)C(=C)CCC(C)C)CC[C@@H]23)C[C@H]1O | Active | Active | 0.05 | 0.01 | 0.1 | Active | Active

Source: ChEMBL document CHEMBL4616676, “Synthesis and Biological Activity of 2,22-Dimethylene Analogues of 19-Norcalcitriol and Related Compounds” (J Med Chem, 2020)
